The record followed here is patent publication US6194601A, “5,6-dihydronaphthalenyl derivatives having retinoid-like activity” (Bristol-Myers Squibb Company, priority 1999, dated 2001).

The test system of data set [1] is rabbit skin. Description: rabbit skin irritation model. It counts as in vivo. To be noted: for Erythema score: Table 3, topical daily 14 days, ethanol; for IS3, irritation relative to TRA: species not given.
The subject of data set [2] is rhino mice. Description: rhino mouse assay, comedolytic activity (utriculi size reduction). The data set is classed as in vivo. To be noted: for ED30: Table 4, topical activity; for ED30 (30% reduction in utriculi size): rhino mouse, FIG. 1 study. On the procedure: (§1) The comedolytic activity of the compounds of the instant application has been evaluated by the rhino mouse assay model. The compounds were administered daily to rhino mice topically in ethanol at various concentrations for 5 days. Signs of skin irritation are evaluated at day 5 by visual inspection of the mouse skin and graded for edema, erythema (redness) and scaling (flakiness) with scales of 1-5 and 1-4, respectively. Skin samples were taken at day 7 and processed for image analysis to measure the size of utriculi.

Data set [3] concerns the target T1, RARβ (Homo sapiens, UniProt P10826).
T1 sequence (P10826 1-455): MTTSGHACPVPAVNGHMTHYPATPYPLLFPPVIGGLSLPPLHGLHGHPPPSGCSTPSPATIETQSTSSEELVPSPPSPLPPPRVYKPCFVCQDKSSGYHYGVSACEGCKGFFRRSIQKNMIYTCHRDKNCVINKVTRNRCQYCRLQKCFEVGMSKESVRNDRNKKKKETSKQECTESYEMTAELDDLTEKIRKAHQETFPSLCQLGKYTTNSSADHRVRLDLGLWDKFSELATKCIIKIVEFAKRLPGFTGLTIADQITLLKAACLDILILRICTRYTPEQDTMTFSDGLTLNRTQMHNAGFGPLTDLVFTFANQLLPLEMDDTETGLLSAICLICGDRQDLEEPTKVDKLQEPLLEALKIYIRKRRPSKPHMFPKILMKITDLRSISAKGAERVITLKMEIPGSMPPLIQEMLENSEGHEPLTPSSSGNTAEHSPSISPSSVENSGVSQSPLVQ
Description: apparent Kd for binding to RARβ. The following applies: read-out: Kd (β).

Data set [4] has as its target T2, RARα (Homo sapiens, UniProt P10276).
T2 sequence (P10276 1-462): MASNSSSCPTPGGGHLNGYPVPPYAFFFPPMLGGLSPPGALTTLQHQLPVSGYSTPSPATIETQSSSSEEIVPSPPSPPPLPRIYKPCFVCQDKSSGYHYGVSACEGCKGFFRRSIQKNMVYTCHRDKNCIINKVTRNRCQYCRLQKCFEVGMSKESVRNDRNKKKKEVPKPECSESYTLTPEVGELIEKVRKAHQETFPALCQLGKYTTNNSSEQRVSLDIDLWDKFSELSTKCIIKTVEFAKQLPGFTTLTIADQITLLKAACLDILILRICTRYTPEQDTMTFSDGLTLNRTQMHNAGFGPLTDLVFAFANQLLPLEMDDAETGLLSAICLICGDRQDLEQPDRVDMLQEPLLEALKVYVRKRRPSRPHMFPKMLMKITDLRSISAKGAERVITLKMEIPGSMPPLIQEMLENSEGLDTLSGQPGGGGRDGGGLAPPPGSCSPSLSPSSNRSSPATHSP
Description: apparent Kd for binding to RARα. The following applies: read-out: Kd (α).

The test system of data set [5] is rhino mice. On the set-up: species or system rhino mouse. To be noted: mouse, in vivo. On the procedure: as §1
Data set [6] has as its target T3, RARγ (Homo sapiens, UniProt P13631).
T3 sequence (P13631 1-454): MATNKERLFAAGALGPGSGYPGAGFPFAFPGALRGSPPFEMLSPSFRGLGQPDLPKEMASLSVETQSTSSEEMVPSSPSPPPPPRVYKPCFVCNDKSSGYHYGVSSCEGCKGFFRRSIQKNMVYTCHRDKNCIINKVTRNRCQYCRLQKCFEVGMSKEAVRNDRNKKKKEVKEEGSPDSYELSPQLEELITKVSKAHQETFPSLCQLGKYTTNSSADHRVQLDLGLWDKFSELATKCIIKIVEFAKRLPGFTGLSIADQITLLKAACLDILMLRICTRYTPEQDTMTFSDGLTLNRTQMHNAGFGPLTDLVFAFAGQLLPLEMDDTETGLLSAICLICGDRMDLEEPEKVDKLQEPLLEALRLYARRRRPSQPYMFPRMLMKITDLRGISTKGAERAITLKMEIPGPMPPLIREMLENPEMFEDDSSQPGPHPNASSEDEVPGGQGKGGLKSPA
Description: apparent Kd for binding to RARγ. To be noted: read-out: Kd (γ).

Data set [7] can be described thus: rabbit skin irritation model. The data set is classed as in vivo. To be noted: rabbit, in vivo, topical or ocular; from IS3 and ED30, Table 4; read-out: Therapeutic index.
In data set [8] the test system is MCF7 Breast CA (E2-dep.). Description: inhibition of cell proliferation (3H-thymidine uptake), MCF7. It counts as cell-based. The following applies: Homo sapiens. As for the experimental part: (§2) The compounds of the present invention have been also tested as inhibitors of cell proliferation (^3 H-thymidine uptake). Cells were plated on 96-well plates at a pre-determined density so that 80% cellular confluency is reached by day 7. 24 hr after plating, culture media was changed and cells were treated with the appropriate drug or vehicle (day 0). Culture media was changed on days 3 and 6. Cellular proliferation was measured on Day 7 by quantitating the amount of tritiated thymidine ([3H]-TdR) incorporated into the celular DNA (Odham, K. G. (1977) in: Radiotracer Techniques and Applications, edited by E. A. Evans and M. Murawatsu; M. Dekker Inc. New York; 2, 823).

In data set [9] the test system is Calu-3 Lung CA. Description: inhibition of cell proliferation (3H-thymidine uptake), Calu-3. The following applies: Homo sapiens. The data set is classed as cell-based. As for the experimental part: as §2
The test system of data set [10] is H3396 Breast CA (E2-dep.). Description: inhibition of cell proliferation (3H-thymidine uptake), H3396. It counts as cell-based. To be noted: Homo sapiens. On the procedure: as §2
Data set [11] deals with H3396 (ER+) breast carcinoma subcutaneous xenografts. Description: tumor growth inhibition in athymic mice bearing H3396 xenografts. It counts as in vivo. The following applies: intraperitoneal, every two days for 10 days. As for the experimental part:
This potent anti-proliferative activity is also translated in vivo on athymic mice bearing H3396 (ER+) breast carcinoma subcutaneous xenografts (P. A. Trail, et al., Cancer Research, 52, p. 5693-5700 (1992). Athymic mice were implanted with 0.72 mg (60-day release) estradiol pellets (Innovative Research of America, Toledo, Ohio) one day prior to the implantation of H3396 tumors. H3396 tumors were measured in two perpendicular directions at weekly or biweekly intervals, using calipers. Tumor volume was calculated according to the equation: V=I×w^2 /2, where V=volume (mm3), I=measurement of longest axis (mm), and w=measurement of axis perpendicular to 1. In general, there were 8-10 mice in each control or treatment group. Data are presented as median tumor size for control or treated groups. Antitumor activity is expressed in terms of median TVDD values, where TVDD=T-C/TVDT; T-C is defined as the median time (days) for treated tumors to reach 500 mm3 in size minus the median time for control tumors to reach 500 mm3 in size and TVDT is the time (days) for control tumors to double in volume (250-500 mm3).
In this experiment, the tumor growth delay was equivalent to 1.2 log cell kill at 30 mg/kg.

Data set [12] relates to SCC 25 tongue SCC. Description: inhibition of cell proliferation (3H-thymidine uptake), SCC 25. It counts as cell-based. To be noted: Homo sapiens. As for the experimental part:
as §2

The subject of data set [13] is SK-BR-3 Breast CA (E2-indep.). Description: inhibition of cell proliferation (3H-thymidine uptake), SK-BR-3. The following applies: Homo sapiens. It counts as cell-based. As for the experimental part: as §2
Data set [14] concerns Detroit 562 Pharyngeal CA. Description: inhibition of cell proliferation (3H-thymidine uptake), Detroit 562. It counts as cell-based. To be noted: Homo sapiens. As for the experimental part: as §2
[15] abbreviates: species and concentration not given.
Setting [16] is: topical daily in ethanol, 5 days.
The mark [17] stands for this setting: 7 days, 3H-thymidine, read-out: IC50.

Entries after “also recorded” stand apart in the source; their conditions may differ. Read-outs that look alike come from different tables or passages of the source.

`CCC(C)(/C=C\C1=CCC(C)(C)c2ccc(/C=C/c3ccc(C(=O)O)cc3)cc21)CC` [Compound B, 4-[(E)-(5,6-Dihydro-5,5-dimethyl-8-((Z)-3-methyl-3-ethyl-1-penten-1-yl)-2-naphthalenyl)ethenyl]benzoic acid]: the Erythema score in [1] (concentration not given) came to 2.8. In data set [1] (setting [15]), the “IS3, irritation in words” value is “Irritating”. Moreover, in [1], the “IS3, irritation relative to TRA” value was “<TRA”. In addition, in [2] (1.6 mM, topical daily in ethanol, 5 days), the “Utriculi reduction (at 1.6 mM, printed in the 1 mM column)” value was 100%.
Regarding `CC(C)(O)/C=C\C1=CCC(C)(C)c2ccc(/C=C/c3ccc(C(=O)O)cc3)cc21` [II, 4-[(E)-(5,6-Dihydro-5,5-dimethyl-8-((Z)-3-methyl-3-hydroxyl-1-buten-1-yl)-2-naphthalenyl)ethenyl]benzoic acid], the Erythema score in data set [1] (concentration not given) is 0. Moreover, the Kd in data set [3] turned out to be 2.19 nM; in [4] it was 1.6 nM; in data set [6] it was 1.57 nM. The “IS3, irritation in words” value in [5] was “No irritation”. Besides, the “Utriculi reduction at 0.1 mM” value in data set [2] (setting [16]) came to 8.4%. In data set [2] (setting [16]), the “Utriculi reduction at 1 mM” value amounted to 84%. For the same compound, the ED30 in data set [2] was determined as 400000 nM.
In data set [1] (concentration not given), `CC1=C(C#CC(C)(C)C)c2cc(/C=C/c3ccc(C(=O)O)cc3)ccc2C(C)(C)C1` [Compound A, 4-[(E)-(5,6-Dihydro-5,5-dimethyl-7-methyl-8-(3,3-dimethyl-1-butyn-1-yl)-2-naphthalenyl)ethenyl]benzoic acid] gave an Erythema score of 3.1. In data set [5], the “IS3, irritation in words” value was “Very irritating”. Further, the “Utriculi reduction at 0.1 mM” value in data set [2] (setting [16]) is given as 100%. Moreover, the ED30 in data set [2] was < 100000 nM.
With `CC(C)(C)C#CC1=CCC(C)(C)c2ccc(/C=C/c3ccc(C(=O)O)cc3)cc21` [Compound I, 4-[(E)-(5,6-Dihydro-5,5-dimethyl-8-(3,3-dimethyl-1-butyn-1-yl)-2-naphthalenyl)ethenyl]benzoic acid], the “therapeutic index compared with TRA and analogs” value in data set [1] was “highly superior to TRA and to most of the closely related analogs”. In addition, the “irritation to rabbit skin” value in [1] (1 mM, 14 days, FIG. 2) is given as “did not cause any irritation”; in data set [1] (5 mM), “did not cause any signs of irritation to rabbit skin; also recorded: did not show any signs of irritation”. The Erythema score in data set [1] (concentration not given) was found to be 0. The “IS3, irritation in words” value in data set [1] (in rabbits at 5 mM) is recorded as “No irritation”. In data set [7], the selectivity ratio was > 99. The IC50 (as a rule, the concentration that gives 50% inhibition) in data set [8] (setting [17]) came to 6500 nM; in data set [9] (setting [17]), 10 nM; in data set [10] (setting [17]), 40 nM; in data set [12] (setting [17]), 9500 nM; in [13] (setting [17]), 8 nM; in data set [14] (setting [17]), 5500 nM. Also, the Kd in [3] was found to be 1.26 nM; in [4], 2.23 nM; in data set [6], 25 nM. Moreover, the “tumor growth delay equivalent (log cell kill)” value in data set [11] (30 mg/kg) is listed as 1.2 log cell kill. Also, in [11] (FIG. 3), the “potency in inhibiting tumor growth compared with doxorubicin” value was “as potent as doxorubicin”. Also, in data set [2] (setting [16]), the “Utriculi reduction at 0.1 mM” value is recorded as 72%. Besides, the “Utriculi reduction at 1 mM” value in data set [2] (setting [16]) is 100%. The same compound returned an ED30 in data set [2] of 55000 nM. Moreover, in data set [2], the “ED30 (30% reduction in utriculi size)” value came out at 55000 nM.
Take `CC(C)(C)/C=C\C1=CCC(C)(C)c2ccc(/C=C/c3ccc(C(=O)O)cc3)cc21` [Compound C, 4-[(E)-(5,6-Dihydro-5,5-dimethyl-8-((Z)-3,3-dimethyl-1-buten-1-yl)-2-naphthalenyl)ethenyl]benzoic acid]: the Erythema score in [1] (concentration not given) is recorded as 6.0. For the same compound, the “IS3, irritation in words” value in [1] (in rabbits, concentration not given) is reported as “Very irritating”; in [5] it was “Very irritating”. Also, the selectivity ratio in data set [7] was < 20. Also, the “Utriculi reduction (at 0.01 mM, printed in the 0.1 mM column)” value in data set [2] (0.01 mM, topical daily in ethanol, 5 days) is recorded as 30%. The ED30 in data set [2] is 80000 nM.
On to “4-[(E)-(5,6-Dihydro-5,5-dimethyl-8-(1-methyl-1-ethane-thio)-2-naphthalenyl)ethenyl]benzoic acid [Compound D]”, for which the Erythema score in [1] (concentration not given) was 5.7. The “IS3, irritation in words” value in [1] (setting [15]) was “Very irritating”. For the same compound, in data set [1], the “IS3, irritation relative to TRA” value is given as “>>TRA”. Also, the “Utriculi reduction at 0.1 mM” value in data set [2] (setting [16]) came out at 85.4%. Also, the ED30 in data set [2] was < 100000 nM.
Consider `CC1=C(/C=C/C(C)=C/C=C/C(C)=C/C(=O)O)C(C)(C)CCC1` [TRA, All-trans retinoic acid], for which the Erythema score in data set [1] (concentration not given) is 4.8. The “IS3 (concentration necessary to achieve an irritation score of 3)” value in data set [1] (Table 4) came to 0.3 mM. In data set [1] (concentrations above 0.1 mM, 14 days, FIG. 2), the “irritation to rabbit skin” value is given as “caused significant irritation to rabbit skin”. Also, the IC50 in data set [8] is 650 nM; in data set [9] it was 100 nM; in data set [10] it was 300 nM; in [12], 50 nM; in [13], 1 nM; in data set [14], > 10000 nM. For the same compound, the “Utriculi reduction at 0.1 mM” value in [2] (setting [16]) came to 64%. The “Utriculi reduction at 1 mM” value in [2] (setting [16]) was found to be 100%. This compound also came in with an ED30 in [2] of 15000 nM. In addition, in [2], the “ED30 (30% reduction in utriculi size)” value was 28000 nM.
